These results are taken from patent US10836720B2, “Inhibitors of integrin alpha 5 beta 1 and methods of use” (The Regents of the University of California, priority 2016, dated 2020).

For experiment [1], the target named is alphavbeta1 (Homo sapiens, UniProt G3HZ55+P06756). Kind of experiment: Cell adhesion assay, alphavbeta1-mediated (CHO cells transfected with human alphav adhering to the latency associated peptide of TGF-beta). The format is cell-based. As to conditions: adhesion to LAP of TGF-beta. As to the method:
The blockade of integrin alpha 5 beta 1 provides a novel target for the treatment of asthma. […] The intracellular actin-myosin cross-bridging pathway serves as a useful target. Modulating the interactions of the cell and the extracellular matrix impairs the ability of the smooth muscle to transmit tension effectively. The blockade of integrin alpha 5 beta 1 was tested in vitro with human cell lines as well as in vivo with a mouse model of airway hyperresponsiveness. Novel compounds as described herein, and identified in Table 1, have been synthesized and tested in vitro for their ability to inhibit cell adhesion mediated by either alpha5beta1 (adhesion of the colon carcinoma cell line SW480 to fibronectin, a response that is entirely dependent on binding of alpha5beta1 to fibronectin), or alphavbeta1 (adhesion of Chinese Hamster Ovary cells transfected with human alphav to the latency associated peptide of transforming growth factor beta, a response that is entirely dependent on binding of alphavbeta1 to LAP).

Experiment [2] concerns the target alpha5beta1 (Homo sapiens (Human), UniProt P05556+P08648). Description: Cell adhesion assay, alpha5beta1-mediated (colon carcinoma cell line SW480 adhering to fibronectin). The conditions noted are these: SW480 cells. The format is cell-based. Here is the method: The blockade of integrin alpha 5 beta 1 was tested in vitro with human cell lines as well as in vivo with a mouse model of airway hyperresponsiveness.

Structures are written as SMILES. pIC50: −log10 of the molar value. A value given as a limit tells only on which side of the number the result lay.

Chain of alpha5beta1 (P08648 42-894): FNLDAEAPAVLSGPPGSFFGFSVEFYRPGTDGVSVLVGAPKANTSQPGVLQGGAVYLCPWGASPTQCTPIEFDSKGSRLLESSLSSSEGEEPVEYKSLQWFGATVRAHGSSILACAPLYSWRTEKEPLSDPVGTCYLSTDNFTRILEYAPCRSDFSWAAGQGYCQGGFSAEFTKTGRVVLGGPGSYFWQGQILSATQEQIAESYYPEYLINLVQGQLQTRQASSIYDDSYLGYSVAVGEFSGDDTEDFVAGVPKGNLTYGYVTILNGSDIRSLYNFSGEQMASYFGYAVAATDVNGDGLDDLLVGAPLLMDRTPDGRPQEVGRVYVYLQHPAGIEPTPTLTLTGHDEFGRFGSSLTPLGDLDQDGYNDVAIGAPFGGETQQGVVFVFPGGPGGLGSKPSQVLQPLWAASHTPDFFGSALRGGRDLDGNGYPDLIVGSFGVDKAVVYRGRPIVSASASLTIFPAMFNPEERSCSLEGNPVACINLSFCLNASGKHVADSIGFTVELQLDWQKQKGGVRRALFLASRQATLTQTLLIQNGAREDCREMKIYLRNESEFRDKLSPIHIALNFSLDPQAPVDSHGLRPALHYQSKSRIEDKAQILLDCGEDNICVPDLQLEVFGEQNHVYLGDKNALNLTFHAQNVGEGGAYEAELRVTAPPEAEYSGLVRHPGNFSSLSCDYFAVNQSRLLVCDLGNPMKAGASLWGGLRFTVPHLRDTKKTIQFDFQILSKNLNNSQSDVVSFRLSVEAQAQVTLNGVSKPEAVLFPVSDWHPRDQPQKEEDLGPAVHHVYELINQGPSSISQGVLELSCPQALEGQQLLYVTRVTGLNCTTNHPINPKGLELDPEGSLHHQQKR
Chain of alpha5beta1 (P08648 895-1049): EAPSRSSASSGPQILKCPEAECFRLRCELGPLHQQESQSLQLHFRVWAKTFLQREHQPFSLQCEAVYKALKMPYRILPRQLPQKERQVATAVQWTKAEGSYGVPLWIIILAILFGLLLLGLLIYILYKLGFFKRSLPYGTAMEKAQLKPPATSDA
Chain of alpha5beta1 (P05556 21-798): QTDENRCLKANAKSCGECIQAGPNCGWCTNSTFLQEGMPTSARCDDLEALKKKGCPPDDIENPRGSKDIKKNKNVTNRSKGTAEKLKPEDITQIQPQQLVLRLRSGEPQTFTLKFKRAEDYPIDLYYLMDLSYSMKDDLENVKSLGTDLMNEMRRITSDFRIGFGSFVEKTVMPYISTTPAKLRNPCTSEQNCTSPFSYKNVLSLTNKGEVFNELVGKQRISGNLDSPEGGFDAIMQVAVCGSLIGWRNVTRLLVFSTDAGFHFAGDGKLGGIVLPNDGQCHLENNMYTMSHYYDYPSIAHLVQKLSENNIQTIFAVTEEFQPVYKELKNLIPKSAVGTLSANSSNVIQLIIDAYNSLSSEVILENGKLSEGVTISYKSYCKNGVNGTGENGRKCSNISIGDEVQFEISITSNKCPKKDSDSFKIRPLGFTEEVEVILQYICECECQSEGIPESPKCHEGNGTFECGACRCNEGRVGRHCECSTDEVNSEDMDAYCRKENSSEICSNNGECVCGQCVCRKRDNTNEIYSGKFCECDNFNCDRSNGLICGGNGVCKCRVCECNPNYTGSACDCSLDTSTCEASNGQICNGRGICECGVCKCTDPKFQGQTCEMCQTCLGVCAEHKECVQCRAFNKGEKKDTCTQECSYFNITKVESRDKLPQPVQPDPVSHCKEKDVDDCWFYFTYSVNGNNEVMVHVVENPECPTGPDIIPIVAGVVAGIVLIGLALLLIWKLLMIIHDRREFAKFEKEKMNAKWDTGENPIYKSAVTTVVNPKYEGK
Chain of alphavbeta1 (G3HZ55 21-798 limits assumed): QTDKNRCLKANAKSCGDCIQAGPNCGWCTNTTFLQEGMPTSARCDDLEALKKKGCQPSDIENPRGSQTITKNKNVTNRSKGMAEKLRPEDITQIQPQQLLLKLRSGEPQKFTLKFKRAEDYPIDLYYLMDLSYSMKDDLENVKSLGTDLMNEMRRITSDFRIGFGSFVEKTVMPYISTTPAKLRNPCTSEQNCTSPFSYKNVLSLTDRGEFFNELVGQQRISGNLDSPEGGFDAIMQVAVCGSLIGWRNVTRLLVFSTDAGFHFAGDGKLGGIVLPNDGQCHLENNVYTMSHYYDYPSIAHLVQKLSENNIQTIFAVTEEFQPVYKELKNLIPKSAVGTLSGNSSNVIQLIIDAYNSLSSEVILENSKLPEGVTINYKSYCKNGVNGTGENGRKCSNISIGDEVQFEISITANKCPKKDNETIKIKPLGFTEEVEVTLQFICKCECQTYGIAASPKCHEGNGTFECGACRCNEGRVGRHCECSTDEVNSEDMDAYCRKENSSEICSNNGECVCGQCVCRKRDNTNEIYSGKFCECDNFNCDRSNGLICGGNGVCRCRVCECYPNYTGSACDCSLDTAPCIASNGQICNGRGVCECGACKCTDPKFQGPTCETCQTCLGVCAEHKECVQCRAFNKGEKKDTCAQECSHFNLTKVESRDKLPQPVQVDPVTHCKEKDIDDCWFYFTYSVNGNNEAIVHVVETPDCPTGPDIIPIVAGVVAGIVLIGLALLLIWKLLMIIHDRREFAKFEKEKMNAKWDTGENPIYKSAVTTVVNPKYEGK
Chain of alphavbeta1 (P06756 31-889 limits assumed): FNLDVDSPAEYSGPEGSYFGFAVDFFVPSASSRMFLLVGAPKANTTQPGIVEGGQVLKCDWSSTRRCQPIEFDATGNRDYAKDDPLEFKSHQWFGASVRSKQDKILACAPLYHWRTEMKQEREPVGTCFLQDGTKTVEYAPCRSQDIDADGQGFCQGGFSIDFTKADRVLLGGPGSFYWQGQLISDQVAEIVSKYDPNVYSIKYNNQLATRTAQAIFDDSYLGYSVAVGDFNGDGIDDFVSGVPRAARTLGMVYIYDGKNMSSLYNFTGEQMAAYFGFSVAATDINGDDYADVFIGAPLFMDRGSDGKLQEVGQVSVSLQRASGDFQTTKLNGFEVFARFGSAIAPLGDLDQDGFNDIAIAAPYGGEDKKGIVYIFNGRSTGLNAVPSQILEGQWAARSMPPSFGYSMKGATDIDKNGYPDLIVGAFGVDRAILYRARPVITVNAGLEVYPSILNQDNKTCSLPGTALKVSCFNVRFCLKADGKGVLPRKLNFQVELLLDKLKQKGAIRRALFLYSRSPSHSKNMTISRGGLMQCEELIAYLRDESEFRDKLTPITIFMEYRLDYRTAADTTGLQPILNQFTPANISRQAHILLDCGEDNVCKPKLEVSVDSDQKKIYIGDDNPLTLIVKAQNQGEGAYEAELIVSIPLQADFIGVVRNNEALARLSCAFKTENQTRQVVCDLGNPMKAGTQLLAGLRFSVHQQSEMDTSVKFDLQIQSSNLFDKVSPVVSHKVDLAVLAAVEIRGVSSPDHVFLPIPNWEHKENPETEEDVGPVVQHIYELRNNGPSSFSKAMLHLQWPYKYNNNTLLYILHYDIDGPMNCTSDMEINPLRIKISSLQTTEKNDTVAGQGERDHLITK
Chain of alphavbeta1 (P06756 891-1048 limits assumed): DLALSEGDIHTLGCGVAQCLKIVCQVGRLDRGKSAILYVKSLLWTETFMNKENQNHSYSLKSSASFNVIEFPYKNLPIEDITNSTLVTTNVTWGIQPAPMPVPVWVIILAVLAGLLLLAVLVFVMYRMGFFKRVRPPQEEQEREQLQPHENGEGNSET

Turning to `O=C(CNC(=O)c1cccc(Nc2ccccn2)c1)NC[C@H](NC(=O)[C@@H]1CCCN1S(=O)(=O)c1ccccc1)C(=O)O` [HIJ-1093], the negative logarithm of the IC50 (pIC50) in experiment [1] and in experiment [2] was 5.00 to 7.00 each time.

As for `N=C(N)NCCCCCC(=O)NC[C@H](NC(=O)[C@@H]1CCCN1S(=O)(=O)c1ccccc1)C(=O)O` [HIJ-1083, (S)-3-(6-guanidinohexanamido)-2-((S)-1-(phenylsulfonyl)pyrrolidine-2-carboxamido)propanoic acid], the pIC50 in experiment [1] and in experiment [2] was 5.00 to 7.00 each time. On to `N=C(N)Nc1cccc(C(=O)NNC(=O)NC[C@H](NC(=O)[C@@H]2CCCN2S(=O)(=O)c2ccccc2)C(=O)O)c1` [HIJ-1099, (S)-3-(2-(3-guanidinobenzoyl)hydrazine-1-carboxamido)-2-((S)-1-(phenylsulfonyl)pyrrolidine-2-carboxamido)propanoic acid], for which the results for the negative-log IC50 (pIC50) in experiment [1] and in experiment [2] were 5.00 to 7.00 and over 7.00, respectively.

As to `N=C(N)NCCCCNC(=O)NC[C@H](NC(=O)[C@@H]1CCCN1S(=O)(=O)c1ccccc1)C(=O)O` [HIJ-1016, (S)-3-(3-(4-guanidinobutyl)ureido)-2-((S)-1-(phenylsulfonyl)pyrrolidine-2-carboxamido)propanoic acid], the pIC50 in experiment [1] is over 7.00; in experiment [2], 5.00 to 7.00. Taken in the same sequence, the figures for `N=C(N)NCCCCCCNC(=O)NC[C@H](NC(=O)[C@@H]1CCCN1S(=O)(=O)c1ccccc1)C(=O)O` [HIJ-1018, (S)-3-(3-(6-guanidinohexyl)ureido)-2-((S)-1-(phenylsulfonyl)pyrrolidine-2-carboxamido)propanoic acid] were over 7.00 and 5.00 to 7.00. In experiment [2], `N=C(N)Nc1cc(NC(=O)CCCN)cc(C(=O)NCC(=O)NC[C@H](NC(=O)[C@@H]2CCCN2S(=O)(=O)c2ccccc2)C(=O)O)c1` [HIJ-1437, (S)-3-(2-(3-(4-aminobutanamido)-5-guanidinobenzamido)acetamido)-2-((S)-1-(phenylsulfonyl)pyrrolidine-2-carboxamido)propanoic acid] showed a negative-log IC50 (pIC50) of over 7.00. Turning to `N=C(N)NCCCCCNC(=O)NC[C@H](NC(=O)[C@@H]1CCCN1S(=O)(=O)c1ccccc1)C(=O)O` [HIJ-1017, (S)-3-(3-(5-guanidinopentyl)ureido)-2-((S)-1-(phenylsulfonyl)pyrrolidine-2-carboxamido)propanoic acid], the pIC50 was over 7.00 in experiment [1] and 5.00 to 7.00 in experiment [2]. For `N=C(N)NCCCCC(=O)N[C@@H](CCCCNC(=S)Nc1ccc(C2c3ccc(O)cc3OC3=CC(=O)C=CC32)c(C(=O)O)c1)C(=O)NC[C@H](NC(=O)[C@@H]1CCCN1S(=O)(=O)c1ccccc1)C(=O)O` (stereo partly drawn) [HIJ-1216, 5-(3-((S)-6-(((S)-2-carboxy-2-((S)-1-(phenylsulfonyl)pyrrolidine-2-carboxamido)ethyl)amino)-5-(5-guanidinopentanamido)-6-oxohexyl)thioureido)-2-(6-hydroxy-3-oxo-9,9a-dihydro-3H-xanthen-9-yl)benzoic acid] the same measures were under 5.00 and under 5.00. For `N=C(N)Nc1cccc(C(=O)NCC(=O)NC[C@H](NC(=O)[C@@H]2CCCN2S(=O)(=O)c2ccccc2)C(=O)O)c1` [HIJ-1094, (S)-3-(2-(3-guanidinobenzamido)acetamido)-2-((S)-1-(phenylsulfonyl)pyrrolidine-2-carboxamido)propanoic acid] the same measures were over 7.00 and over 7.00. As for `N=C(N)Nc1cc(NC(=O)CCCNC(=O)C23CC4CC(CC(C4)C2)C3)cc(C(=O)NCC(=O)NC[C@H](NC(=O)[C@@H]2CCCN2S(=O)(=O)c2ccccc2)C(=O)O)c1` [HIJ-1483, (2S)-3-(2-(3-(4-((1s,3s)-adamantane-1-carboxamido)butanamido)-5-guanidinobenzamido)acetamido)-2-((S)-1-(phenylsulfonyl)pyrrolidine-2-carboxamido)propanoic acid], the pIC50 in experiment [2] is over 7.00.

In general, pIC50 refers to −log10 of the IC50, conventionally taken in molar units. Low readings indicate a high IC50, high ones a low IC50.
